Measurements reported in ChEMBL document CHEMBL6109146, “Discovery of New Pyrazolone Carbothioamide Derivatives as Potent Antifungal Agents for the Treatment of Candidiasis and Cryptococcosis” (J Med Chem, 2025).
The source made the active and inactive calls. The rule behind the calls is not given here.

system: [Candida] auris; assay: Antifungal activity against Candida auris 15448 assessed as inhibition of fungal growth incubated for 48 to 72 hrs by microplate reader analysis; assay type: functional, organism-based; conditions: Candidozyma auris, time 48-72 hrs

| Structure (SMILES) | Activity |
| --- | --- |
| Nc1cc(=O)n(C(=S)Nc2ccc(OC3CCCC3)cc2)[nH]1 | Active |
| Nc1ccn(C(=S)Nc2ccc(C3CCCCC3)cc2)n1 | inactive |
| CNC(=O)c1ccc(NC(=S)n2[nH]c(N)cc2=O)cc1 | Not active; Compound Demonstrated Reduced Activity Compared To Lead Compound 1 |
| Nc1cc(=O)n(C(=S)Nc2ccc3ncccc3c2)[nH]1 | Not active; Decrease In Activity Observed |
| Nc1cc(=O)n(C(=S)Nc2ccc3c(c2)COC3=O)[nH]1 | inactive |
| CCc1ccc(NC(=S)n2[nH]c(N)cc2=O)cc1 | Active |
| Nc1cc(=O)n(C(=S)Nc2ccc(C(F)(F)F)cc2)[nH]1 | Not active; Compound Demonstrated Reduced Activity Compared To Lead Compound 1 |

system: [Candida] auris; assay: Antifungal activity against Candida auris 0029 assessed as inhibition of fungal growth incubated for 48 to 72 hrs by microplate reader analysis; assay type: functional, organism-based; conditions: Candidozyma auris, time 48-72 hrs

| Structure (SMILES) | Activity |
| --- | --- |
| Nc1cc(=O)n(C(=S)Nc2ccc(OC3CCCC3)cc2)[nH]1 | Active |
| Nc1ccn(C(=S)Nc2ccc(C3CCCCC3)cc2)n1 | inactive |
| CNC(=O)c1ccc(NC(=S)n2[nH]c(N)cc2=O)cc1 | Not active; Compound Demonstrated Reduced Activity Compared To Lead Compound 1 |
| Nc1cc(=O)n(C(=S)Nc2ccc3ncccc3c2)[nH]1 | Not active; Decrease In Activity Observed |
| Nc1cc(=O)n(C(=S)Nc2ccc3c(c2)COC3=O)[nH]1 | inactive |
| CCc1ccc(NC(=S)n2[nH]c(N)cc2=O)cc1 | Active |
| Nc1cc(=O)n(C(=S)Nc2ccc(C(F)(F)F)cc2)[nH]1 | Not active; Compound Demonstrated Reduced Activity Compared To Lead Compound 1 |

system: Cryptococcus neoformans; assay: Antifungal activity against Cryptococcus neoformans HN-68 assessed as inhibition of fungal growth incubated for 48 to 72 hrs by microplate reader analysis; assay type: functional; conditions: time 48-72 hrs

| Structure (SMILES) | Activity |
| --- | --- |
| Nc1cc(=O)n(C(=S)Nc2ccc(OC3CCCC3)cc2)[nH]1 | Active |
| Nc1ccn(C(=S)Nc2ccc(C3CCCCC3)cc2)n1 | inactive |
| CNC(=O)c1ccc(NC(=S)n2[nH]c(N)cc2=O)cc1 | Not active; Compound Demonstrated Reduced Activity Compared To Lead Compound 1 |
| Nc1cc(=O)n(C(=S)Nc2ccc3ncccc3c2)[nH]1 | Active |
| Nc1cc(=O)n(C(=S)Nc2ccc3c(c2)COC3=O)[nH]1 | Not active; Decrease In Activity Observed |
| CCc1ccc(NC(=S)n2[nH]c(N)cc2=O)cc1 | Active |
| Nc1cc(=O)n(C(=S)Nc2ccc(C(F)(F)F)cc2)[nH]1 | Not active; Compound Demonstrated Reduced Activity Compared To Lead Compound 1 |

system: Cryptococcus gattii; assay: Antifungal activity against Cryptococcus gattii 01063P assessed as inhibition of fungal growth incubated for 48 to 72 hrs by microplate reader analysis; assay type: functional; conditions: time 48-72 hrs

| Structure (SMILES) | Activity |
| --- | --- |
| Nc1cc(=O)n(C(=S)Nc2ccc(OC3CCCC3)cc2)[nH]1 | Active |
| Nc1ccn(C(=S)Nc2ccc(C3CCCCC3)cc2)n1 | inactive |
| CNC(=O)c1ccc(NC(=S)n2[nH]c(N)cc2=O)cc1 | Not active; Compound Demonstrated Reduced Activity Compared To Lead Compound 1 |
| Nc1cc(=O)n(C(=S)Nc2ccc3ncccc3c2)[nH]1 | Active |
| Nc1cc(=O)n(C(=S)Nc2ccc3c(c2)COC3=O)[nH]1 | Not active; Decrease In Activity Observed |
| CCc1ccc(NC(=S)n2[nH]c(N)cc2=O)cc1 | Active |
| Nc1cc(=O)n(C(=S)Nc2ccc(C(F)(F)F)cc2)[nH]1 | Not active; Compound Demonstrated Reduced Activity Compared To Lead Compound 1 |

system: Candida albicans; assay: Antifungal activity against Candida albicans SC5314 assessed as inhibition of fungal growth incubated for 48 to 72 hrs by microplate reader analysis; assay type: functional, organism-based; conditions: time 48-72 hrs

| Structure (SMILES) | Activity |
| --- | --- |
| Nc1cc(=O)n(C(=S)Nc2ccc(OC3CCCC3)cc2)[nH]1 | Active |
| Nc1ccn(C(=S)Nc2ccc(C3CCCCC3)cc2)n1 | inactive |
| CNC(=O)c1ccc(NC(=S)n2[nH]c(N)cc2=O)cc1 | Not active; Compound Demonstrated Reduced Activity Compared To Lead Compound 1 |
| Nc1cc(=O)n(C(=S)Nc2ccc3ncccc3c2)[nH]1 | Not active; Decrease In Activity Observed |
| Nc1cc(=O)n(C(=S)Nc2ccc3c(c2)COC3=O)[nH]1 | inactive |
| CCc1ccc(NC(=S)n2[nH]c(N)cc2=O)cc1 | Active |
| Nc1cc(=O)n(C(=S)Nc2ccc(C(F)(F)F)cc2)[nH]1 | Not active; Compound Demonstrated Reduced Activity Compared To Lead Compound 1 |

system: [Candida] auris; assay: Antifungal activity against Candida auris 0030 assessed as inhibition of fungal growth incubated for 48 to 72 hrs by microplate reader analysis; assay type: functional, organism-based; conditions: Candidozyma auris, time 48-72 hrs

| Structure (SMILES) | Activity |
| --- | --- |
| Nc1cc(=O)n(C(=S)Nc2ccc(OC3CCCC3)cc2)[nH]1 | Active |
| Nc1ccn(C(=S)Nc2ccc(C3CCCCC3)cc2)n1 | inactive |
| CNC(=O)c1ccc(NC(=S)n2[nH]c(N)cc2=O)cc1 | Not active; Compound Demonstrated Reduced Activity Compared To Lead Compound 1 |
| Nc1cc(=O)n(C(=S)Nc2ccc3ncccc3c2)[nH]1 | Not active; Decrease In Activity Observed |
| Nc1cc(=O)n(C(=S)Nc2ccc3c(c2)COC3=O)[nH]1 | inactive |
| CCc1ccc(NC(=S)n2[nH]c(N)cc2=O)cc1 | Active |
| Nc1cc(=O)n(C(=S)Nc2ccc(C(F)(F)F)cc2)[nH]1 | Not active; Compound Demonstrated Reduced Activity Compared To Lead Compound 1 |

system: Nakaseomyces glabratus; assay: Antifungal activity against Candida glabrata 0161 assessed as inhibition of fungal growth incubated for 48 to 72 hrs by microplate reader analysis; assay type: functional; conditions: time 48-72 hrs

| Structure (SMILES) | Activity |
| --- | --- |
| Nc1cc(=O)n(C(=S)Nc2ccc(OC3CCCC3)cc2)[nH]1 | Active |
| Nc1ccn(C(=S)Nc2ccc(C3CCCCC3)cc2)n1 | inactive |
| CNC(=O)c1ccc(NC(=S)n2[nH]c(N)cc2=O)cc1 | Active |
| Nc1cc(=O)n(C(=S)Nc2ccc3ncccc3c2)[nH]1 | Active |
| Nc1cc(=O)n(C(=S)Nc2ccc3c(c2)COC3=O)[nH]1 | Not active; Decrease In Activity Observed |
| CCc1ccc(NC(=S)n2[nH]c(N)cc2=O)cc1 | Active |
| Nc1cc(=O)n(C(=S)Nc2ccc(C(F)(F)F)cc2)[nH]1 | Active |

system: Cryptococcus neoformans; assay: Antifungal activity against Cryptococcus neoformans H99 assessed as inhibition of fungal growth incubated for 48 to 72 hrs by microplate reader analysis; assay type: functional; conditions: time 48-72 hrs

| Structure (SMILES) | Activity |
| --- | --- |
| Nc1cc(=O)n(C(=S)Nc2ccc(OC3CCCC3)cc2)[nH]1 | Active |
| Nc1ccn(C(=S)Nc2ccc(C3CCCCC3)cc2)n1 | inactive |
| CNC(=O)c1ccc(NC(=S)n2[nH]c(N)cc2=O)cc1 | Not active; Compound Demonstrated Reduced Activity Compared To Lead Compound 1 |
| Nc1cc(=O)n(C(=S)Nc2ccc3ncccc3c2)[nH]1 | Active |
| Nc1cc(=O)n(C(=S)Nc2ccc3c(c2)COC3=O)[nH]1 | Not active; Decrease In Activity Observed |
| CCc1ccc(NC(=S)n2[nH]c(N)cc2=O)cc1 | Active |
| Nc1cc(=O)n(C(=S)Nc2ccc(C(F)(F)F)cc2)[nH]1 | Not active; Compound Demonstrated Reduced Activity Compared To Lead Compound 1 |

system: Cryptococcus neoformans; assay: Antifungal activity against Cryptococcus neoformans 011409 assessed as inhibition of fungal growth incubated for 48 to 72 hrs by microplate reader analysis; assay type: functional; conditions: time 48-72 hrs

| Structure (SMILES) | Activity |
| --- | --- |
| Nc1cc(=O)n(C(=S)Nc2ccc(OC3CCCC3)cc2)[nH]1 | Active |
| Nc1ccn(C(=S)Nc2ccc(C3CCCCC3)cc2)n1 | inactive |
| CNC(=O)c1ccc(NC(=S)n2[nH]c(N)cc2=O)cc1 | Not active; Compound Demonstrated Reduced Activity Compared To Lead Compound 1 |
| Nc1cc(=O)n(C(=S)Nc2ccc3ncccc3c2)[nH]1 | Active |
| Nc1cc(=O)n(C(=S)Nc2ccc3c(c2)COC3=O)[nH]1 | Not active; Decrease In Activity Observed |
| CCc1ccc(NC(=S)n2[nH]c(N)cc2=O)cc1 | Active |
| Nc1cc(=O)n(C(=S)Nc2ccc(C(F)(F)F)cc2)[nH]1 | Not active; Compound Demonstrated Reduced Activity Compared To Lead Compound 1 |

system: Nakaseomyces glabratus; assay: Antifungal activity against Candida glabrata 9256 assessed as inhibition of fungal growth incubated for 48 to 72 hrs by microplate reader analysis; assay type: functional; conditions: time 48-72 hrs

| Structure (SMILES) | Activity |
| --- | --- |
| Nc1cc(=O)n(C(=S)Nc2ccc(OC3CCCC3)cc2)[nH]1 | Active |
| Nc1ccn(C(=S)Nc2ccc(C3CCCCC3)cc2)n1 | inactive |
| CNC(=O)c1ccc(NC(=S)n2[nH]c(N)cc2=O)cc1 | Active |
| Nc1cc(=O)n(C(=S)Nc2ccc3ncccc3c2)[nH]1 | Active |
| Nc1cc(=O)n(C(=S)Nc2ccc3c(c2)COC3=O)[nH]1 | Not active; Decrease In Activity Observed |
| CCc1ccc(NC(=S)n2[nH]c(N)cc2=O)cc1 | Active |
| Nc1cc(=O)n(C(=S)Nc2ccc(C(F)(F)F)cc2)[nH]1 | Active |

system: Candida albicans; assay: Antifungal activity against Candida albicans 9296 assessed as inhibition of fungal growth incubated for 48 to 72 hrs by microplate reader analysis; assay type: functional, organism-based; conditions: time 48-72 hrs

| Structure (SMILES) | Activity |
| --- | --- |
| Nc1cc(=O)n(C(=S)Nc2ccc(OC3CCCC3)cc2)[nH]1 | Active |
| Nc1ccn(C(=S)Nc2ccc(C3CCCCC3)cc2)n1 | inactive |
| CNC(=O)c1ccc(NC(=S)n2[nH]c(N)cc2=O)cc1 | Not active; Compound Demonstrated Reduced Activity Compared To Lead Compound 1 |
| Nc1cc(=O)n(C(=S)Nc2ccc3ncccc3c2)[nH]1 | Not active; Decrease In Activity Observed |
| Nc1cc(=O)n(C(=S)Nc2ccc3c(c2)COC3=O)[nH]1 | inactive |
| CCc1ccc(NC(=S)n2[nH]c(N)cc2=O)cc1 | Active |
| Nc1cc(=O)n(C(=S)Nc2ccc(C(F)(F)F)cc2)[nH]1 | Not active; Compound Demonstrated Reduced Activity Compared To Lead Compound 1 |

system: Candida albicans; assay: Antifungal activity against Candida albicans 103 assessed as inhibition of fungal growth incubated for 48 to 72 hrs by microplate reader analysis; assay type: functional, organism-based; conditions: time 48-72 hrs

| Structure (SMILES) | Activity |
| --- | --- |
| Nc1cc(=O)n(C(=S)Nc2ccc(OC3CCCC3)cc2)[nH]1 | Active |
| Nc1ccn(C(=S)Nc2ccc(C3CCCCC3)cc2)n1 | inactive |
| CNC(=O)c1ccc(NC(=S)n2[nH]c(N)cc2=O)cc1 | Not active; Compound Demonstrated Reduced Activity Compared To Lead Compound 1 |
| Nc1cc(=O)n(C(=S)Nc2ccc3ncccc3c2)[nH]1 | Not active; Decrease In Activity Observed |
| Nc1cc(=O)n(C(=S)Nc2ccc3c(c2)COC3=O)[nH]1 | inactive |
| CCc1ccc(NC(=S)n2[nH]c(N)cc2=O)cc1 | Active |
| Nc1cc(=O)n(C(=S)Nc2ccc(C(F)(F)F)cc2)[nH]1 | Not active; Compound Demonstrated Reduced Activity Compared To Lead Compound 1 |

system: Nakaseomyces glabratus; assay: Antifungal activity against Candida glabrata 8535 assessed as inhibition of fungal growth incubated for 48 to 72 hrs by microplate reader analysis; assay type: functional; conditions: time 48-72 hrs

| Structure (SMILES) | Activity |
| --- | --- |
| Nc1cc(=O)n(C(=S)Nc2ccc(OC3CCCC3)cc2)[nH]1 | Active |
| Nc1ccn(C(=S)Nc2ccc(C3CCCCC3)cc2)n1 | inactive |
| CNC(=O)c1ccc(NC(=S)n2[nH]c(N)cc2=O)cc1 | Active |
| Nc1cc(=O)n(C(=S)Nc2ccc3ncccc3c2)[nH]1 | Active |
| Nc1cc(=O)n(C(=S)Nc2ccc3c(c2)COC3=O)[nH]1 | Not active; Decrease In Activity Observed |
| CCc1ccc(NC(=S)n2[nH]c(N)cc2=O)cc1 | Active |
| Nc1cc(=O)n(C(=S)Nc2ccc(C(F)(F)F)cc2)[nH]1 | Active |
